Measured values as given in paper PMC12495412, “Coumarin/nitrogen-bearing heterocyclic hybrid-loaded electrospun PMMA/PVP nanofibrous scaffolds for accelerating topical wound healing rates: synthesis and in vitro bio-evaluation” (RSC Advances, 2025).
Converted amounts (≈) assume the structure as drawn. Marks after values point to notes of the source that are not given here.

Columns and labels:
Wi-38 cells = assay: MTT cytotoxicity assay, normal cells; type: cell-based; settings: 48 h
Source text: (§1) MTT assay: the normal cell line (Wi-38), colon cancer (Caco-2), lung cancer (A549), and breast cancer (MDA) cell lines were sourced from ATCC, USA. All different cell lines were cultivated and preserved in DMEM medium (SERANA, Germany), accompanied by 10% FBS (Gibco, USA) and 1% Pen/Strep solution (Lonza, USA). The newly prepared derivatives at various doses were considered for their anticancer activity and their safety on normal cells, applying MTT (3-[4, 5-dimethylthiazol]-2, 5-diphenyltetrazolium bromide) methods.[22] At first, all normal and cancer cell lines (1.0 ×10^4) were inoculated in 4 antiseptic 96-well tissue culture microplates and incubated for 24 h in a CO2 incubator. After cell attachments, the prepared derivatives were added to both normal Wi-38 cells at diverse concentrations of (6.25–200 μg mL^−1, 2-fold) and cancer cells at different concentrations of (3.125–100 μg mL^−1, 2-fold) in triplicate and incubated for another 48 h at 37 °C in a CO2 incubator with an adjusted concentration of 5%. After that, the treated cells were cleaned three times with PBS to remove debris and dead cells. Next, 200 μL of 0.5 mg mL^−1 MTT dye solution in PBS was mixed in each well, and the cells were further kept for 3 h at 37 °C in a 5% CO2 incubator. After that, MTT was removed and 200 μL of DMSO was added to each well. The optical density (OD) was recorded at 570 nm via a microplate reader (B.M.G. LabTech, Germany). Basic cells (untreated) were utilized as negative control cells, and 5-fluorouracil (5-FU) was included as a standard chemotherapy drug. The qualified cell viability (%) was evaluated as in equation (eqn (1)):1 Relative cell viability (%) = […] A1 is the OD of the examined derivative, A0 is the OD of the standard, and AU is the OD of the untreated cells.
(§2) Anticancer activity assay: the anticancer effect of each derivative was assessed by evaluating the half-maximal inhibitory concentration (IC50) value via the GraphPad Prism 7.0 software. However, SI (selective index) values of each derivative were estimated by splitting the IC50 value of healthy cells by the IC50 value of malignant cells, as previously reported.[23] The effects of the created derivatives on the morphology of MDA cells were evaluated at IC50 doses and captured by phase-contrast microscopy (Olympus, Germany) in comparison to untreated control cells.

Caco-2 cells = assay: MTT anticancer assay; type: cell-based; settings: for SI Caco-2: IC50 Wi-38 / IC50 Caco-2
Source text: as §1, §2

A549 cells [1] = assay: MTT anticancer assay; type: cell-based, human; settings: 48 h
Source text: as §1, §2

MDA cells = assay: MTT anticancer assay; type: cell-based, human; settings: 48 h
Source text: as §1, §2

A549 cells [2] = assay: Wound healing scratch (anti-migration) assay; type: cell-based, human; settings: IC50 doses, 48 h
Procedure: To assess the anti-migration inhibition capability of newly synthesized derivatives, a wound healing technique was employed. A549 cells were planted in 12-well plates and kept alive at 37 °C until they achieved 80–90% fluency. The cell monolayers were smashed with a sterile tip and exposed to the prepared derivatives at IC50 doses. At 0 and 48 h of treatment, the wound closure area was captured and calculated by imaging analysis with the Cell-Sens software (Olympus, Japan).

all applied pathogens = assay: Agar-well diffusion of synthesized compounds, whole panel; type: cell-based
Source text: The antimicrobial activity of the prepared compounds was estimated through an agar-well diffusion method as adapted from the modified Kirby–Bauer protocol.[24] In this test, microbial pathogens were applied, including Staphylococcus aureus ATCC 25923 (S. aureus), Streptococcus mutans ATCC 25175 (S. mutans), Bacillus cereus ATCC 19637 (B. cereus), Bacillus aureus ATCC 25923 (B. aureus), Bacillus epidermidis ATCC 14990 (B. epidermidis), and Bacillus subtilis ATCC 11774 (B. subtilis) as Gram-positive bacteria, and Pseudomonas aeruginosa ATCC 27853 (P. aeruginosa), Klebsiella pneumonia ATCC 13883 (K. pneumonia), and Salmonella typhimurium ATCC 14028 (S. typhimurium), Salmonella pneumoniae ATCC 10031(S. pneumoniae), Escherichia coli ATCC 10536 (E. coli), and Salmonella paratyphi ATCC 9150 (S. paratyphi) as Gram-negative bacteria. Additionally, Candida albicans (ATCC 10231), Candida krusei ATCC 6258 (C. krusei), Candida glabrata ATCC 66032 (C. glabrata), andCandida parapsilosis ATCC 22019 (C. parapsilosis) were applied as models of unicellular fungi. The pre-inoculation cultures of the pathogens were prepared on Muller–Hinton broth and cultivated for 24 h at 37 °C. The agar-well test was prepared on Muller–Hinton agar with 100 μL of each pathogen pre-culture (0.5 McFarland conc.) and uniformly distributed on the plate surface. Under aseptic conditions, six wells were created on the agar surface using a sterile corkborer (9 mm). To each well, 100 μL of the prepared compound (10 mg mL^−1) was separately inserted into each plate. All plates were incubated for 24 h at 37 °C; the established inhibition zones (Halo-zones) surrounding the wells indicated positive antimicrobial activity and were stated as the radius of the inhibition zone (mm).

Bacillus cereus [3] = assay: Agar-well diffusion of formulations; type: cell-based; settings: 50 μL per 5 mm well, 37 °C
Procedure: (§3) The antimicrobial qualities of formulations were evaluated in this study using a variety of techniques. The formulations including 8 PMMA and 2 PVP, which contained varying doses of drug A (0.5% = T1, 1% = T2, 3% = T3, and 5% = T4) or drug B (0.5% = T5, 1% = T6, 3% = T7, and 5% = T8), as well as a combination of 2.5% of drug A and 2.5% of drug B (T9) were assessed. The tested human pathogens were cultivated in a nutritional broth medium containing 0.5% peptone, 0.3% yeast extract, 0.2% beef extract, 0.1% glucose, and 0.5% NaCl in accordance with 0.5 McFarland turbidity criteria.[25] To carry out the agar-well diffusion analysis, microbial cultures (100 μL) were spread on nutrient agar plates using sterile cotton swabs. After drilling each well with a sterile cork-borer of 5 mm in diameter, 50 μL of the tested formulations and the control (composed of 8 PMMA and 2 PVP) were loaded. Agar plates were thereafter left to incubate at 37 °C for an entire day. The inhibitory zone that surrounds each well was measured in millimeters (mm) using a ruler.[26]

Bacillus subtilis [4] = assay: Agar-well diffusion of formulations; type: cell-based; settings: 50 μL per 5 mm well, 37 °C
Procedure: as §3

Candida albicans [5] = assay: Agar-well diffusion of formulations; type: cell-based; settings: 50 μL per 5 mm well, 37 °C
Procedure: as §3

Candida glabrata [6] = assay: Agar-well diffusion of formulations; type: cell-based; settings: 50 μL per 5 mm well, 37 °C
Procedure: as §3

Candida krusei [7] = assay: Agar-well diffusion of formulations; type: cell-based; settings: 50 μL per 5 mm well, 37 °C
Procedure: as §3

Candida parapsilosis [8] = assay: Agar-well diffusion of formulations; type: cell-based; settings: 50 μL per 5 mm well, 37 °C
Procedure: as §3

Escherichia coli [9] = assay: Agar-well diffusion of formulations; type: cell-based; settings: 50 μL per 5 mm well, 37 °C
Procedure: as §3

Klebsiella pneumoniae [10] = assay: Agar-well diffusion of formulations; type: cell-based; settings: 50 μL per 5 mm well, 37 °C
Procedure: as §3

Pseudomonas aeruginosa [11] = assay: Agar-well diffusion of formulations; type: cell-based; settings: 50 μL per 5 mm well, 37 °C
Procedure: as §3

Salmonella paratyphi [12] = assay: Agar-well diffusion of formulations; type: cell-based; settings: 50 μL per 5 mm well, 37 °C
Procedure: as §3

Staphylococcus aureus [13] = assay: Agar-well diffusion of formulations; type: cell-based; settings: 50 μL per 5 mm well, 37 °C
Procedure: as §3

[14] = test system: Staphylococcus epidermidis; assay: Agar-well diffusion of formulations; type: cell-based; settings: 50 μL per 5 mm well, 37 °C
Procedure: as §3

[15] = test system: multidrug-resistant human pathogens; assay: Agar-well diffusion of formulations, whole panel; type: cell-based; settings: all human pathogens investigated
Procedure: as §3

Bacillus cereus [16] = assay: Biofilm inhibition test (spectrophotometric); type: cell-based; settings: 24 h, 37 °C, OD vs untreated
Procedure: (§4) Additionally, a spectrophotometric antibiofilm assay was utilized to determine whether the evaluated formulations might inhibit the growth of pathogens. Fresh nutritional broth was inoculated with each pathogen separately, and this mixture was then incubated at 37 °C at 200 rpm. The optical density (OD) at 600 nm was measured over a 6 h incubation period, allowing for an estimation of the starting microbe's exponential phase (3 × 10^7 CFU mL^−1). To produce treated cultures, 900 μL of planktonic cultures were collected aseptically with 100 μL of each formulation. Furthermore, untreated (formula-free) cultures of pathogens were grown as controls. The cultures were then incubated for 24 hours at 200 rpm and 37 °C. Through spectroscopic evaluation of microbial turbidity, the inhibitory effects of the examined formulations were determined.[27] By comparing the OD of the treated sample with the matching controls, anti-biofilm percentages for each formula were computed.[28]

Bacillus subtilis [17] = assay: Biofilm inhibition test (spectrophotometric); type: cell-based; settings: 24 h, 37 °C, OD vs untreated
Procedure: as §4

Candida albicans [18] = assay: Biofilm inhibition test (spectrophotometric); type: cell-based; settings: 24 h, 37 °C, OD vs untreated
Procedure: as §4

Candida glabrata [19] = assay: Biofilm inhibition test (spectrophotometric); type: cell-based; settings: 24 h, 37 °C, OD vs untreated
Procedure: as §4

Candida krusei [20] = assay: Biofilm inhibition test (spectrophotometric); type: cell-based; settings: 24 h, 37 °C, OD vs untreated
Procedure: as §4

Candida parapsilosis [21] = assay: Biofilm inhibition test (spectrophotometric); type: cell-based; settings: 24 h, 37 °C, OD vs untreated
Procedure: as §4

Escherichia coli [22] = assay: Biofilm inhibition test (spectrophotometric); type: cell-based; settings: 24 h, 37 °C, OD vs untreated
Procedure: as §4

Klebsiella pneumoniae [23] = assay: Biofilm inhibition test (spectrophotometric); type: cell-based; settings: 24 h, 37 °C, OD vs untreated
Procedure: as §4

Pseudomonas aeruginosa [24] = assay: Biofilm inhibition test (spectrophotometric); type: cell-based; settings: 24 h, 37 °C, OD vs untreated
Procedure: as §4

Salmonella paratyphi [25] = assay: Biofilm inhibition test (spectrophotometric); type: cell-based; settings: 24 h, 37 °C, OD vs untreated
Procedure: as §4

Staphylococcus aureus [26] = assay: Biofilm inhibition test (spectrophotometric); type: cell-based; settings: 24 h, 37 °C, OD vs untreated
Procedure: as §4

[27] = test system: Staphylococcus epidermidis; assay: Biofilm inhibition test (spectrophotometric); type: cell-based; settings: 24 h, 37 °C, OD vs untreated
Procedure: as §4

O=C(Nc1ccc(Nc2c3ccccc3nc3ccccc23)cc1)c1cc2ccccc2oc1=O [Compound B, N-(4-(acridin-9-ylamino)phenyl)-2-oxo-2H-chromene-3-carboxamide]
IC50 (Wi-38 cells; WI-38, normal human lung fibroblast cells): 126 ± 10.9 µg/mL (≈ 276 µM) | IC50 (Caco-2 cells; Homo sapiens, Caco-2, colon carcinoma cells, MTT, 48 h): 4.87 ± 1.69 µg/mL (≈ 10.6 µM) | SI Caco-2 (Caco-2 cells): 25.93 ± 2.25 | IC50 (A549 cells [1]; Homo sapiens, A549, lung carcinoma cells): 6.98 ± 1.99 µg/mL (≈ 15.3 µM) | IC50 (MDA cells; Homo sapiens, Breast carcinoma cell): 4.27 ± 0.46 µg/mL (≈ 9.33 µM) | Migration inhibition (A549 cells [2]): 87.21% | Antimicrobial activity (all applied pathogens): no antimicrobial activity

Cc1ccc(-c2nnc(Nc3ccc(N)cc3)c3ccccc23)cc1 [Compound C1]
IC50 Wi-38 (Wi-38 cells; normal human lung fibroblast cells): 192.7 ± 16.79 µg/mL (≈ 590 µM) | SI Caco-2 (Caco-2 cells): 15.94 ± 1.39 | IC50 Caco-2 (Caco-2 cells; colon carcinoma cells, MTT, 48 h): 12.09 ± 1.42 µg/mL (≈ 37 µM) | IC50 A549 (A549 cells [1]; lung carcinoma cells): 21.01 ± 2.05 µg/mL (≈ 64.4 µM) | IC50 MDA (MDA cells; breast carcinoma cells): 13.98 ± 0.57 µg/mL (≈ 42.8 µM)

O=C(Nc1ccc(Nc2ccnc3cc(Cl)ccc23)cc1)c1cc2ccccc2oc1=O [Compound C2]
Inhibition zone diameters (Bacillus cereus [3]): 0 mm | Inhibition zone diameters (Bacillus subtilis [4]): 0 mm | Inhibition zone diameters (Candida albicans [5]): 0 mm | Inhibition zone diameters (Candida glabrata [6]): 0 mm | Inhibition zone diameters (Candida krusei [7]): 0 mm | Inhibition zone diameters (Candida parapsilosis [8]): 0 mm | Inhibition zone diameters (Escherichia coli [9]): 0 mm | Inhibition zone diameters (Klebsiella pneumoniae [10]): 0 mm | Inhibition zone diameters (Pseudomonas aeruginosa [11]): 0 mm | Inhibition zone diameters (Salmonella paratyphi [12]): 0 mm | Inhibition zone diameters (Staphylococcus aureus [13]): 0 mm | Inhibition zone diameters [14]: 0 mm | Antimicrobial effect [15]: neither C1 nor C2 controls have any effect | Biofilm reduction (Bacillus cereus [16]): 10.32 ± 0.19^i % | Biofilm reduction (Bacillus subtilis [17]): 8.41 ± 0.31^i % | Biofilm reduction (Candida albicans [18]): 3.21 ± 0.99^i % | Biofilm reduction (Candida glabrata [19]): 6.48 ± 1.87^i % | Biofilm reduction (Candida krusei [20]): 5.24 ± 1.22^i % | Biofilm reduction (Candida parapsilosis [21]): 3.87 ± 0.14^i % | Biofilm reduction (Escherichia coli [22]): 8.31 ± 0.75^i % | Biofilm reduction (Klebsiella pneumoniae [23]): 2.03 ± 0.77^i % | Biofilm reduction (Pseudomonas aeruginosa [24]): 3.65 ± 0.47^i % | Biofilm reduction (Salmonella paratyphi [25]): 7.24 ± 0.38^i % | Biofilm reduction (Staphylococcus aureus [26]): 11.31 ± 0.17^i % | Biofilm reduction [27]: 8.29 ± 0.19^i %
